The test system of the assay is Rat Aortic Smooth Muscle Cells (RASMCs). The note with it: drug spiked directly into growth media, 20 ng/mL.

Each structure is given as a SMILES string.

Experimental findings from patent US11318232B2, “Compositions and methods for delivering drugs to a vessel wall” (Interface Biologics, Inc., priority 2018, dated 2022) are described below.

`CO[C@H]1C[C@@H]2CC[C@@H](C)[C@@](O)(O2)C(=O)C(=O)N2CCCC[C@H]2C(=O)O[C@H]([C@H](C)C[C@@H]2CC[C@@H](O)[C@H](OC)C2)CC(=O)[C@H](C)/C=C(\C)[C@@H](O)[C@@H](OC)C(=O)[C@H](C)C[C@H](C)/C=C/C=C/C=C/1C` [sirolimus]: the “Normalized cell growth at 72 hours” value is 0.463±0.035.
